This note sets out measurements from patent publication US20070099939A1, “Fungicidal mixtures for controlling rice pathogens” (priority 2003, published 2007).

The experiment concerns Cochliobolus miyabeanus. Put plainly: Activity against brown spot of rice caused by Cochliobolus miyabeanus, protective application. Format: in vivo. As to conditions: individual active compound, inoculated next day, assessed after six days. The protocol: The active compounds, separately or jointly, were prepared as a stock solution with 0.25% by weight of active compound in acetone or DMSO. 1% by weight of the emulsifier Uniperol® EL (wetting agent having emulsifying and dispersing action based on ethoxylated alkylphenols) was added to this solution, and the solution was diluted with water to the desired concentration.
Use Example—Activity Against Brown Spot of Rice Caused by Cochliobolus Miyabeanus, Protective Application
Leaves of potted rice seedlings of the cultivar “Tai-Nong 67” were sprayed to runoff point with an aqueous suspension of the concentration of active compound stated below. The next day, the plants were inoculated with an aqueous spore suspension of Cochliobolus miyabeanus. The test plants were then placed in climatized chambers at 22-24° C. and 95-99% relative atmospheric humidity for six days. The extent of the development of the infection on the leaves was then determined visually.
Evaluation was carried out by determining the percentage of infected plants. These percentages were converted into efficacies.
The efficacy (E) is calculated as follows using Abbot's formula: E=(1−α/β)·100 • α corresponds to the fungicidal infection of the treated plants in % and • β corresponds to the fungicidal infection of the untreated (control) plants in %
An efficacy of 0 means that the infection level of the treated plants corresponds to that of the untreated control plants; an efficacy of 100 means that the treated plants are not infected.
The expected efficacies of mixtures of active compounds are determined using Colby's formula (R.S. Colby, Weeds, 15, 20-22, 1967) and compared with the observed efficacies.
Colby's Formula: E=x+y−x·y/100 • E expected efficacy, expressed in % of the untreated control, when using the mixture of the active compounds A and B at the concentrations a and b • x efficacy, expressed in % of the untreated control, when using the active compound A at the concentration a • y efficacy, expressed in % of the untreated control, when using the active compound B at the concentration b

Consider `C[C@H](Nc1c(-c2c(F)cc(F)cc2F)c(Cl)nc2ncnn12)C(F)(F)F` [B], for which, under “4 ppm in the spray liquor”, the “Efficacy in % of the untreated control” value is listed as 44%.

On to `CC1CCN(c2c(-c3c(F)cc(F)cc3F)c(Cl)nc3ncnn23)CC1` [I, 5-chloro-7-(4-methylpiperidin-1-yl)-6-(2,4,6-trifluorophenyl)-[1,2,4]triazolo[1,5-a]pyrimidine], for which the “Efficacy in % of the untreated control” value (4 ppm in the spray liquor) was determined as 33%.

In the case of `CC1=C(C(=O)Nc2ccccc2)SCCO1` [II (carboxin), N-phenyl-2-methyl-5,6-dihydro-[1,4]oxathiine-3-carboxamide], the “Efficacy in % of the untreated control” value is, setting by setting: (1 ppm in the spray liquor) 0%; (4 ppm in the spray liquor) 0%.

With `CC1CCN(c2c(-c3c(F)cccc3Cl)c(Cl)nc3ncnn23)CC1` [A], the “Efficacy in % of the untreated control” value (4 ppm in the spray liquor) turned out to be 44%.
